Columns and labels:
[1] = system: db/db mice; experiment: Measurement of plasma glucose concentration in obesity type diabetes model db/db mice; format: in vivo; settings: Mus musculus, po; plasma glucose 1 and 3 hr after administration, after fasting for 4 hr; significant difference vs solvent group (Dunnett's test); read-out: Minimum effective dose db/db mouse
Procedure: Measurement Method of Plasma Glucose Concentration
Using obesity type diabetes model db/db mice, the effect of the compound (1) of the present invention on glucose concentration in plasma was examined. The glucose concentration in the plasma of db/db mice (10-15 weeks of age) was measured, and the mice were grouped into 5 mice per group such that the average glucose concentration of plasma is leveled. After fasting for 4 hr, the test drug or a solvent (0.5% methyl cellulose) was orally administered to db/db mice, and plasma glucose concentration at 1 and 3 hr after the administration was measured. The hypoglycemic effect of the test drug was evaluated by detecting a significant difference every hour between the solvent administration group and the test drug administration group (Dunnett's test).

[2] = biological target: T1, recombinant human liver glycogen phosphorylase (HLGPa) (Homo sapiens, UniProt P06737); experiment: Measurement of liver glycogen phosphorylase activity (enzyme inhibitory activity against HLGPa); format: biochemical; settings: Sf9 cell lysate expressing recombinant enzyme; reverse reaction (glycogen synthesis from G1-P), phosphate by malachite green, 60 min room temperature
T1 construct: made in house; host or cells: Sf9 insect cells (unpurified cell lysate used as enzyme solution)
T1 sequence (P06737 1-847): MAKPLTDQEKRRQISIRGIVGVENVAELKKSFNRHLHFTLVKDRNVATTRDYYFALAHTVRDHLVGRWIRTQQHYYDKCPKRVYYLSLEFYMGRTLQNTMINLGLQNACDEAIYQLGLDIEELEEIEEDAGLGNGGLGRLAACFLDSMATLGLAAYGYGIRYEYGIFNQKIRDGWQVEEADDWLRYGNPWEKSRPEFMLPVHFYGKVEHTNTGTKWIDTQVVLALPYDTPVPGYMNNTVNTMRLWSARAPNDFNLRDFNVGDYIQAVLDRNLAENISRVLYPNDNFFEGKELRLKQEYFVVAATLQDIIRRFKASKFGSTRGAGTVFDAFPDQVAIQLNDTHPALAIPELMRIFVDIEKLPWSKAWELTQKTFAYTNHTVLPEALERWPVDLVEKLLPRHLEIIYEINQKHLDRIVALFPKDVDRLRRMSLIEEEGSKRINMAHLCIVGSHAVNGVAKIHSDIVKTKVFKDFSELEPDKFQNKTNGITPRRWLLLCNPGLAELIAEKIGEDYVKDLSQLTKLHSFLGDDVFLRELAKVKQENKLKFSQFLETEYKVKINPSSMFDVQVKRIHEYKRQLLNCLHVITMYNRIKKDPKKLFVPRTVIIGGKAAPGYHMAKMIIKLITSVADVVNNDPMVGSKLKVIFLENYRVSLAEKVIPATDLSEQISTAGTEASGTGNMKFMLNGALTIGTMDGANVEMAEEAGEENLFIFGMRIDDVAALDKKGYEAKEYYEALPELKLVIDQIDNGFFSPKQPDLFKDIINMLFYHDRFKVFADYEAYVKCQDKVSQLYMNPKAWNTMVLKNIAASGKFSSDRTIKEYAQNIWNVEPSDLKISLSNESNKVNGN
Summary of the method: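 Activity was run in the reverse, glycogen-synthesis direction, using Sf9 lysate expressing recombinant human liver glycogen phosphorylase (enzyme solution 80 μg/mL protein, pH 7.0). Substrate solution was Tris pH 7.2 with 1.25 mM glucose-1-phosphate, 2.5 mg/ml glycogen and 7.5 mM glucose, reacted 60 min at room temperature. Released phosphate was measured by malachite green A650, with % inhibition taken against DMSO control and no-enzyme blank.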

IC50 [2] [µM]	SMILES	minimal effective dose [1] [mg/kg]
0.053	Cl.N=C(NNC(=O)c1cc2cc(Cl)ccc2[nH]1)c1ccccc1F [Example 6-19, 5-chloro-1H-indole-2-carboxylic acid 2-((2-fluorophenyl)-imino-methyl)hydrazide hydrochloride]	3
0.11	CS(=O)(=O)O.N=C(NNC(=O)c1cc2cc(Cl)ccc2[nH]1)c1ccccc1F [Example 6-20, 5-chloro-1H-indole-2-carboxylic acid 2-((2-fluorophenyl)-imino-methyl)hydrazide methanesulfonate]	3

SMILES	IC50 [2] [µM]	minimal effective dose [1] [mg/kg]
N=C(NNC(=O)c1cc2cc(Cl)ccc2[nH]1)c1ccccc1Cl.O=C(O)/C=C\C(=O)O [Example 6-18, 5-chloro-1H-indole-2-carboxylic acid 2-((2-chlorophenyl)-imino-methyl)hydrazide butenedioic acid salt]	0.049	3

Reference: patent publication US20050054696A1, “Indole compounds and medicinal use thereof” (priority 2001, published 2005)
